Assay results from PMC5637892 (Journal of Peptide Science, 2017).
Positions of bridges follow the written chain, without caps; N, C: chain ends. Primed or numbered codes have the meaning given here. No end group written: not given here. *: point of attachment. PEG4′ = PEG4 spacer between biotin and the N-terminus; Biotin = O=C1N[C@H]2[C@H](CS[C@H]2CCCCC(=O)*)N1

Tests used:
human IgG [1] = assay: Peptide-conjugated affinity column HPLC, human IgG; assay type: binding; conditions: biotinylated peptide on HiTrap Streptavidin HP 1 mL, PBS wash
IgY‐Fc = assay: Peptide-conjugated affinity column HPLC, IgY‐Fc; assay type: binding, chicken; conditions: for elution of IgY‐Fc from peptide column: 0.1 M glycine‐HCl, pH 2.5 vs pH 3.0, IgY and IgY‐Fc; for absorption of IgY‐Fc on peptide column: biotinylated peptide on HiTrap Streptavidin HP 1 mL, PBS wash
IgY = assay: Peptide-conjugated affinity column HPLC, IgY; assay type: binding, chicken; conditions: 0.1 M glycine‐HCl, pH 2.5 vs pH 3.0; IgY and IgY‐Fc
human IgG [2] = assay: Immunoprecipitation with peptide-immobilized SA beads, human IgG; assay type: binding; conditions: biotinylated peptide on SA beads, shaken 1 h; SDS‐PAGE
[3] = target: Chicken egg yolk immunoglobulin (IgY) (chicken); assay: SPR

Molecule	human IgG on peptide column (human IgG [1])	elution of IgY‐Fc from peptide column (IgY‐Fc)	absorption of IgY‐Fc on peptide column (IgY‐Fc)	elution of IgY from peptide column (IgY)	recovery of hIgG by peptide beads (human IgG [2])	Kd [3] [µM]
GVKCTWSSIVDWVCVDM (disulfide 4-14 (inferred)) [Y4‐4]	human IgG passed through both peptide‐immobilized columns	eluted from the column at pH 2.5 and 3.0, although the elution peaks at pH 2.5 were sharper than those at pH 3.0	IgY and IgY‐Fc proteins were absorbed onto both columns	eluted from the column at pH 2.5 and 3.0, although the elution peaks at pH 2.5 were sharper than those at pH 3.0	hIgG was not	
RSVCVWTAVTGWDCRND (disulfide 4-14 (inferred)) [Y5‐55]	human IgG passed through both peptide‐immobilized columns	eluted from the column at pH 2.5 and 3.0, although the elution peaks at pH 2.5 were sharper than those at pH 3.0	IgY and IgY‐Fc proteins were absorbed onto both columns	eluted from the column at pH 2.5 and 3.0, although the elution peaks at pH 2.5 were sharper than those at pH 3.0	hIgG was not	
{Biotin-PEG4′}-RSVCVWTAVTGWDCRND-NH2 (disulfide 4-14 (inferred)) [Y5‐55 synthetic peptide (biotinylated IgY‐binding peptide)]						4.4
{Biotin-PEG4′}-GVKCTWSSIVDWVCVDM-NH2 (disulfide 4-14 (inferred)) [Y4‐4 synthetic peptide (biotinylated IgY‐binding peptide)]						7.3
